Measured values taken from patent US20140329868A1, “METHODS FOR TREATING HYPERTENSION” (TAKEDA PHARMACEUTICALS U.S.A., INC., priority 2005, published 2014).

Key:
[1] = system: subjects having a systolic BP≧160 mmHg or diastolic BP≧95 mmHg (elevated blood pressure); assay: Example 2: blood pressure change in subjects with elevated blood pressure, none taking angiotensin-converting enzyme inhibitors (two double-blind studies); type: in vivo, human; conditions: 300/100 mg QD
Protocol: None of these subjects were taking any angiotensin-coverting enzyme inhibitors, but might have been taking some other type of antihypertensive drug at the baseline (start) of the study. These 158 subjects were part of two (2) DB studies. One study was of 28 weeks in duration during which subjects received 80 mg, 120 mg or 240 mg QD of febuxostat or placebo or allopurinol 300 or 100 mg QD, depending on the subject's renal function. The second study was 52 weeks in duration during which subjects received 80 mg or 120 mg QD of febuxostat or allopurinol 300 mg QD. […] A total of 52 weeks of treatment was completed by 15 subjects in the febuxostat 80 mg QD group, 9 in the febuxostat 120 mg QD group and 17 in the allopurinol 300/100 mg QD group. Because of the shorter duration of one of the two DB studies, no subject in the placebo and febuxostat 240 mg QD groups was treated for 52 weeks.

[2] = target: orotidine-5-monophosphate decarboxylase (Homo sapiens, UniProt P11172); conditions: at a therapeutically effective amount in a subject; stated as known; cited from earlier work
Chain of orotidine-5-monophosphate decarboxylase (P11172 whole entry): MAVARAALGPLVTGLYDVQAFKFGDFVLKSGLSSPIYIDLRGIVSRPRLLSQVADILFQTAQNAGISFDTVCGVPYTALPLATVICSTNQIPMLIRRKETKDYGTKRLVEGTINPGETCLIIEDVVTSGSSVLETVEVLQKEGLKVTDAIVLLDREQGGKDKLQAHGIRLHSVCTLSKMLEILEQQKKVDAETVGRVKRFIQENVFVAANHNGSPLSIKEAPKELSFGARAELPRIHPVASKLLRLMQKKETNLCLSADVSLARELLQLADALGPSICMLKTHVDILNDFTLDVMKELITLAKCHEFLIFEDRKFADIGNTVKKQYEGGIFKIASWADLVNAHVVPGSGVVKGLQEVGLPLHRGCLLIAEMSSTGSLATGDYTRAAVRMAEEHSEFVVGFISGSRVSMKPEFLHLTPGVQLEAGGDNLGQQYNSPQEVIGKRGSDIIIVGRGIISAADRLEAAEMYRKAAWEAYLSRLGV

[3] = system: subjects having a systolic BP≧160 mmHg or diastolic BP≧95 mmHg (elevated blood pressure); assay: Example 3: blood pressure change in subjects with elevated blood pressure, none taking angiotensin antagonists (two double-blind studies); type: in vivo, human; conditions: 300/100 mg QD
Protocol: None of these subjects were taking any angiotensin antagonists, but might have been taking some other type of antihypertensive drug at the baseline (start) of the study. These 187 subjects were part of two (2) DB studies. One study was of 28 weeks in duration during which subjects received 80 mg, 120 mg or 240 mg QD of febuxostat or placebo or allopurinol 300 or 100 mg QD, depending on the subject's renal function. The second study was of 52 weeks in duration during which subjects received 80 mg or 120 mg QD of febuxostat or allopurinol 300 mg QD. Of these 187 subjects, all completed 4 weeks of treatment and 132 completed 28 weeks of treatment. A total of 52 weeks of treatment was completed by 15 subjects in the febuxostat 80 mg QD group, 11 in the febuxostat 120 mg QD group and 22 in the allopurinol 300/100 mg QD group. Because of the shorter duration of one of the 2 DB studies, no subject in the placebo and febuxostat 240 mg QD groups were treated for 52 weeks.

[4] = target: T1, purine nucleotide phosphorylase (Homo sapiens, UniProt P00491); conditions: at a therapeutically effective amount in a subject; stated as known; cited from earlier work
T1 sequence (P00491 1-289): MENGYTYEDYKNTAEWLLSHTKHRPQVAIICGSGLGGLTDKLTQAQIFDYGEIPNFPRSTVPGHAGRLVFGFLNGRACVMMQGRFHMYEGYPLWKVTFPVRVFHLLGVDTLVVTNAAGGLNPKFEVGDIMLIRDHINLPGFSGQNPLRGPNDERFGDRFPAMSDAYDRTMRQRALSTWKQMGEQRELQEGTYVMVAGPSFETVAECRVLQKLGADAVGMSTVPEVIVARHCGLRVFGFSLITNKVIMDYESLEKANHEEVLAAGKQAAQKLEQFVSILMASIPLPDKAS

[5] = system: subjects having a systolic BP≧160 mmHg or diastolic BP≧95 mmHg (elevated blood pressure); assay: Example 1: blood pressure change in subjects with elevated blood pressure, none taking antihypertensive agents at baseline (two double-blind studies); type: in vivo, human; conditions: 300/100 mg QD
Protocol: A total of 103 subjects (9 in the placebo group, 26 in each the 2-[3-cyano-4-(2-methylpropoxy)phenyl]-4-methylthiazole-5-carboxylic acid (hereinafter referred to as “febuxostat”) 80 mg and 120 mg once daily (hereinafter referred to as “QD”) groups, 10 in the febuxostat 240 mg QD group and 32 in the 4-hydroxy-3,4-pyrazolopyrimidine (hereinafter referred to as “allopurinol”) 300/100 mg QD group), having a systolic BP≧160 mmHg or diastolic BP≧95 mmHg, and thus considered to have “elevated blood pressure”, were examined. Allopurinol […] xanthine oxidoreductase inhibitor.
None of the above subjects were taking any antihypertensive agents at the baseline (start) of the study. These […] subjects were part of two (2) double-blind (hereinafter referred to as “DB”) studies. One study was of 28 weeks in duration. During this time, the subjects received 80 mg, 120 mg or 240 mg QD of febuxostat, placebo or allopurinol 300 or 100 mg QD, depending on the subject's renal function. The second study was 52 weeks in duration. During this time, the subjects received 80 mg or 120 mg QD of febuxostat or allopurinol 300 mg QD.

Oc1ncnc2[nH]ncc12 [allopurinol, 4-hydroxy-3,4-pyrazolopyrimidine]
mean change from baseline for diastolic BP ([1]; after 4 weeks of treatment): −6.7 mmHg | mean change from baseline for mean arterial BP ([1]; after 4 weeks of treatment): −6.7 mmHg | mean change from baseline for systolic BP ([1]; after 4 weeks of treatment): −6.6 mmHg | mean change from baseline for diastolic BP ([1]; after 28 weeks of treatment): −10.1 mmHg | mean change from baseline for mean arterial BP ([1]; after 28 weeks of treatment): −9.8 mmHg | mean change from baseline for systolic BP ([1]; after 28 weeks of treatment): −9.1 mmHg | mean change from baseline for diastolic BP ([1]; after 52 weeks of treatment): −11.4 mmHg | mean change from baseline for mean arterial BP ([1]; after 52 weeks of treatment): −10.8 mmHg | mean change from baseline for systolic BP ([1]; after 52 weeks of treatment): −9.5 mmHg | effect on the activity of orotidine-5-monophosphate decarboxylase [2]: has an effect | mean change from baseline for diastolic BP ([3]; after 4 weeks of treatment): −5.7 mmHg | mean change from baseline for mean arterial BP ([3]; after 4 weeks of treatment): −6.1 mmHg | mean change from baseline for systolic BP ([3]; after 4 weeks of treatment): −7.0 mmHg | mean change from baseline for diastolic BP ([3]; after 28 weeks of treatment): −8.7 mmHg | mean change from baseline for mean arterial BP ([3]; after 28 weeks of treatment): −8.8 mmHg | mean change from baseline for systolic BP ([3]; after 28 weeks of treatment): −9.0 mmHg | mean change from baseline for diastolic BP ([3]; after 52 weeks of treatment): −11.6 mmHg | mean change from baseline for mean arterial BP ([3]; after 52 weeks of treatment): −11.1 mmHg | mean change from baseline for systolic BP ([3]; after 52 weeks of treatment): −10.0 mmHg | effect on the activity of purine nucleotide phosphorylase [4]: has an effect | mean change from baseline for diastolic BP ([5]; after 4 weeks of treatment): −6.3 mmHg | mean change from baseline for mean arterial BP ([5]; after 4 weeks of treatment): −6.8 mmHg | mean change from baseline for systolic BP ([5]; after 4 weeks of treatment): −7.7 mmHg | mean change from baseline for diastolic BP ([5]; after 28 weeks of treatment): −8.2 mmHg | mean change from baseline for mean arterial BP ([5]; after 28 weeks of treatment): −7.8 mmHg | mean change from baseline for systolic BP ([5]; after 28 weeks of treatment): −7.0 mmHg | mean change from baseline for diastolic BP ([5]; after 52 weeks of treatment): −10.9 mmHg | mean change from baseline for mean arterial BP ([5]; after 52 weeks of treatment): −10.4 mmHg | mean change from baseline for systolic BP ([5]; after 52 weeks of treatment): −9.4 mmHg
